Patent US8057810B2, “Peptide substance revealing an immunogeroprotective effect, pharmaceutical composition on its base and the method of its application” (priority 2006, dated 2011)
Residues, ends and D or L forms follow the SMILES beside them.

Key:
[1] = tested on: old rats' spleen explants; assay: Development of spleen explants taken from old rats (area index); type: cell-based; settings: 10 ng/ml
Description: (§1) The experiments were staged on 35 fragments of the thymus and 45 fragments of the spleen taken from rats aged 24 months. Nutritional medium for cultivation consisted of 35% Eagle's solution, 25% calf fetal serum, 35% Hanx solution, 5% chicken embryonic extract, with the addition of glucose (0.6%), insulin (0.5 U/ml), penicillin (100 U/ml), glutamin (2 mM). […]
(§2) Peptide H-Glu-Asp-Pro-OH was added into the experimental medium in concentrations of 0.5, 10 and 100 ng/ml.
(§3) Area index (AI)—the ratio of total explant area including the growth zone to the initial area of thymus or spleen fragment was used as a criterion for measuring the biological activity. AI values were expressed in percent, control AI value being taken as 100%.

rat thymus cells = assay: Premature aging induced by ionizing irradiation: rat thymus morphology and morphometry; type: in vivo, Wistar rats
Description: The experiments were conducted on 40 male Wistar rats 2 months old, weighing 180-210 g. Premature aging was modeled by gamma irradiation using LUCH-1 machine (source 60Co; dose output 17.166×10^−4 Gy/sec.). The animals were irradiated in the dose of 6 Gy daily for 5 days. All the animals were divided into 6 groups:
2 and 2a—irradiated rats;
3 and 3a—irradiated rats, subjected to subcutaneous injection of peptide H-Glu-Asp-Pro-OH in the dose of 0.5 μg per animal in 0.25 ml of sterile 0.9% NaCl solution in 24 hours after the first performance of irradiation for 10 days.
Animals of the 2 and 2a group received 0.9% NaCl solution in the same volume and following the same scheme. Slaughtering of the animals and extraction of their thymus were conducted using nembutal anaesthesia (50 mg/kg). Thymus in groups 1-3 was extracted on the 14th day after the experiment onset, in the 1a-3a groups—on the 21 day after the experiment onset.
Fragments of the extracted thymus were fixed for 24 hours in Buen sour liquid for optic microscopy. Material dehydration and filling it in with paraffin for optic microscopy were conducted according to conventional techniques. Paraffin sections (7 μm) were placed on a microscope slide covered with a poly-L-lysine film (Sigma). Histological and immunohistochemical examinations were carried out using Jenamed-2 microscope (Zeiss).
Review staining of the preparations was conducted by hematoxylin-eosin. Mast cells were selectively stained using 1% toluidine blue (Fluka) solution in 0.5M HCl with pH 0.5.
For electron microscopy fragments of the extracted thymus were fixed according to Karnovsky's method. […]
The morphometric studies were conducted by means of the system for computer analysis of microscopic images Imstar using Morphostar and Colquant-2 software, in accordance with the basic principles of stereology and morphometry. […] Proliferative activity index (IPCNA) was calculated using the following formula: IPCNA(%)=NPCNA/Nnuclei×100.

[2] = tested on: old rats' thymus explants; assay: Development of thymus explants taken from old rats (area index); type: cell-based; settings: 0.5 ng/ml; 3rd day of cultivating; rats aged 24 months
Description: as §1, §2, §3

male guinea pigs = settings: guinea pig, in vivo
Description: Common toxicity of H-Glu-Asp-Pro-OH was studied according to the requirements stated in the “Manual for experimental (pre-clinical) study of new pharmacological substances” (2005): acute toxicity in case of single administration of the substance and sub-acute and chronic toxicity in case of long-term administration of the peptide.
The study of acute toxicity was performed on 60 white mongrel male mice with body weight of 18-21 g. The animals were randomly subdivided into 6 equal groups. The substance was administered to the animals once, intramuscularly, in the doses of 1 mg/kg, 2 mg/kg, 3 mg/kg, 4 mg/kg, 5 mg/kg in 0.25 ml of sterile 0.9% NaCl solution. The control animals received 0.9% NaCl solution in the same volume. The study of subacute toxicity was performed on 50 white mongrel male rats with body weight of 170-210 g. Experimental animals received the substance daily, intramuscularly for 90 days in the doses of 1 μg/kg, 0.1 mg/kg, 1 mg/kg in 0.5 ml of sterile 0.9% NaCl solution. […] Upon completion of the experiment biochemical and coagulologic indices of the blood were also evaluated. […] Traditional methods were used for the evaluation of the following indices of the animals' peripheric blood: the quantity of erythrocytes, hemoglobin, reticulocytes, thrombocytes, leukocytes, leukocyte formula, erythrocyte sedimentation rate (ESR), erythrocyte resistance. […]

peritoneal macrophages = assay: Production of lymphocyte activation factors (LAF) by peritoneal macrophages; type: cell-based, mice
Description: The peculiarities of LAF production by peritoneal macrophages in young and ageing mice, as well as the influence of peptide H-Glu-Asp-Pro-OH on this index were studied. LAF activity of the macrophages was estimated judging by their ability to exert a comitogenic effect on the proliferation of thymocytes, stimulated by suboptimal lectin doses in vitro.
The same tendency to the change in LAF production by macrophages was observed under the effect of peptide H-Glu-Asp-Pro-OH in young mice, but not in the whole range of studied concentrations.

[3] = group 3: irradiated rats, 0.5 μg per animal s.c. for 10 days, 14th day
[4] = ageing mice 19-20 months, 0.5 to 500 ng/ml

SMILES: N[C@@H](CCC(=O)O)C(=O)N[C@@H](CC(=O)O)C(=O)N1CCC[C@H]1C(=O)O [Peptide H-Glu-Asp-Pro-OH, glutamyl-aspartyl-proline] (H-Glu-Asp-Pro-OH)
- Stimulating effect on spleen explants at longer term ([1]; 7th day): still visible, although it was less pronounced
- Area index (AI) in spleen explants, increase ([1]; rats aged 24 months): 28%
- Number of mast cells in the thymus (rat thymus cells; [3]): 32±5 per 1 mm^2
- Proliferative activity index (IPCNA) in the thymus (rat thymus cells; [3]): 55%
- Involution changes of the thymus (microscopic analysis) vs irradiated groups 2 and 2a (rat thymus cells; groups 3, 3a: irradiated rats, 0.5 μg per animal s.c., 14th and 21st day): less pronounced involution changes
- Area index (AI) in thymus explants, increase as compared to the control AI [2]: 24%
- Changes in blood morphology, biochemical indices, ESR, erythrocyte resistance (male guinea pigs): no statistically significant changes
- LAF production by non-stimulated peritoneal macrophages (peritoneal macrophages; [4]): induces the production of LAF
- LAF production under the effect of LPS (peritoneal macrophages; [4]): increases the production of LAF
- Change in LAF production by macrophages (peritoneal macrophages; young mice 2 months, not in the whole range of studied concentrations): same tendency
